Data from patent US11485701B2, “Insect repellent compounds and compositions, and methods thereof” (Iowa State University Research Foundation, Inc., priority 2016, dated 2022).
Entries after “also recorded” stand apart in the source; their conditions may differ.

Assays:
Aedes aegypti = test: Human skin testing, biting deterrence (BioGents test cage, treated nylon sleeve); type: in vivo
Method: Female mosquitoes (Aedes aegypti) were reared according to the standard protocol at a temperature of 27.5±1° C., a relative humidity of 65-80% and a 12:12 hour photo period. The light period (450 Lux) was set from 7:00 to 19:00. After hatching from the eggs, larvae were kept in a water basin (30×30×10 cm) filled with a 1:1 mixture of tap- and deionized water with low oxygen content and fed with fish food flakes (Tetra Min®). Pupae were transferred to a cage (40×30×20 cm) provided with sugar solution (10% dextrose). Mosquitoes at an age of 5 to 10 days post-emergence were used for behavioral tests.
BioGents (BG) test cages are an in-house improvement of conventional test cages for the evaluation of mosquito repellents (Obermayr et al., “A Novel Test Cage with an Air Ventilation System as an Alternative to Conventional Cages for the Efficacy Testing of Mosquito Repellents,” J. Med. Entomol. 47:1116-22 (2010) which is hereby incorporated by reference in its entirety). The cages have a volume of 27.000 cm^3 (41×41×16 cm). Four sides of a cage are made of acrylic glass, the floor is made of metal sheet, and the rear side is covered by a gauze sleeve. The floor sheet is equipped with a test window (size: 56 cm^2; 14.8×3.8 cm) for the exposure of the treated skin. In between tests, BG cages are connected to a ventilation system that provides clean, warm, and humid air (26±1° C., 65±5% R.H.) to remove remaining host odours and repellent volatiles from the air inside the cage. In the presented study, the ventilation system was not applied as mosquitoes were only tested once and then discarded. Each treated sleeve was tested on a fresh batch of mosquitoes. Each cage was filled with populations of 30 mosquitoes, lured out of their rearing cages by a natural stimulus (human hand) to ensure that only host-seeking females are used for the repellent tests
All formulations have been stored at 4° C. Prior to testing, stock formulations were diluted v/v to final concentrations of 10% in 200 proof ethanol. […] For each test formulations, 2 pieces were prepared—one was treated, while the other one remained untreated and was worn between skin and treated nylon sleeve.
From each test formulation 5 ml were filled into 25 ml glass flasks; immediately afterwards stockings were folded into the flasks and pushed into the liquid formulation with a clean spatula. Flasks were sealed and incubated in the fridge overnight. On the consecutive day, one of the treated nylon pieces was removed from the flasks and left to dry on a clean paper towel for at least 10 minutes or until the ethanol had evaporated. The drying process was conducted at 27° C. and 65% to 80%. One untreated nylon sleeve was attached to the forearm followed by the treated sleeve.
Prior to a repellent efficacy test, the biting activity of the test mosquitoes was verified with the other, untreated forearm of a volunteer (wearing an untreated nylon sleeve). To keep biting pressure on the untreated skin low, a modified spacer covered with fine mosquito netting was used in control tests. Mosquitoes were still attracted to the skin odours and landed on the net, however they were not able to reach the skin and pierce it. A minimum of 10 landings had to be observed in 30 seconds during tests with Ae. aegypti. In case of lowered biting activities, 5 to 10 new mosquitoes were added to the cage or 30 new mosquitoes are used. […] The number of landing and biting mosquitoes was recorded. […]

[1] = tested on: female Aedes aegypti (Orlando strain, 1952); test: Minimum effective dosage testing, human skin (treated cloth patch); type: in vivo
Method: The test mosquitoes were female Aedes aegypti (Orlando strain, 1952) from the colony maintained at United States Department of Agriculture-Agricultural Research Service-Center for Medical, Agricultural and Veterinary Entomology (USDA-ARS-CMAVE) in Gainesville, Fla. Pupae were obtained from the colony and newly emerged mosquitoes were maintained on 10% sugar water and kept in laboratory cages at an ambient temperature of 28±1° C. and RH of 35-60%. Host seeking behavior was pre-selected in nulliparous female mosquitoes aged 6-10 days, indicated by flight upwind towards a potential host, from stock cages using a hand-draw box and trapped in a collection trap.
After 500 (±10%) females were collected in the trap, they were transferred to a test cage (approximately 59,000 cm^3 with dimensions 45×37.5×35 cm) and allowed to acclimatize for 17.5 (±2.5) min before testing was initiated. Just prior to the experiment, the pieces of treated cloth are removed from the vials and stapled onto card stock tabs (5×3 cm). Each piece of the cards and the assembly were hung on a drying rack using masking tape for 3-5 min. Participants in the study used latex gloves to pull a nylon stocking over their arm. A Velcro™-sealed vinyl sleeve was then placed over the forearm. […] The purpose of the nylon stocking was to produce a barrier between the dried cloth and the skin, thereby avoiding direct contact of chemical to skin. The dried cloth assembly was affixed over the opening in the sleeve and held in place with masking tape. Participants then inserted their arm with the sleeve and patch into a screened cage that contained female Ae. Aegypti mosquitoes. Tests were conducted on each control or treated patch for 1 min. A control patch (acetone solvent only, then dried) was tested prior to the start of experiments and evaluation of the same untreated control patch after every 10 tests. If 5 landings were not received on the control patch in 30 s, then tests were discontinued for 60 min. At the conclusion of testing the control patch was tested again. If five landings were not received within 30 s, the data for the replicate was discarded. When testing a patch treated with a candidate repellent, if approximately 1% or 5 mosquito bites were received during this one minute test, this compound was considered to have failed, i.e., was not repellent at that concentration. If a treated cloth patch received 0-4 bites within a minute, then it was considered as passed, i.e., repellent at that concentration of the test compound. The median concentration patch was tested in the first round and treated patches were then tested successively at higher or lower concentrations depending upon whether the previous patch failed or passed, respectively.
The time interval between each tested patch was <90 seconds until 10 successive tests had been conducted. If appreciable, mortality had occurred during testing, the number of knocked down mosquitoes are estimated and additional female mosquitoes are added to the cage to keep the available mosquitoes at approximately 500. The estimate of the MED was the lowest concentration that passed for each candidate. Observed MED values for each candidate compound were averaged across participants and reported as a mean MED±standard error.

[2] = nylon treated with 10% in ethanol, max 2 min exposure, one volunteer
[3] = treated cloth patch, 1 min test, high dose 1.5 mg/cm^2

CC(C)=CCCC(C)CC(=O)OCC(C)O (stereo not drawn) [Compound 2144, 2-hydroxypropyl citronellate]
Observations (Aedes aegypti; nylon treated with 10%): Repellent effects were clearly noticeable; also recorded: Visible repelient effects
Bites (Aedes aegypti; nylon treated with 10% in ethanol, bites per 120 sec): 0/120 sec
Contacts: Landing (mosquitoes sits for >3 sec) (Aedes aegypti; [2]): 2
Contacts: Short touch-down (Aedes aegypti; [2]): 18
bite reduction (Aedes aegypti; nylon treated with 10%, versus untreated nylon): (100% bite reduction)
Minimum effective dosage [1]: 0.055 mg/cm²
Proportion to DEET ([1]; average MED relative to DEET): 2.053
Minimum effective dosage testing, result in words ([1]; in vivo): performed similarly to DEET
Minimum Effective Dosage, Average ([1]; mean across subjects): 0.039 mg/cm^2
Minimum Effective Dosage, Subject 1 [1, 3]: 0.047 mg/cm^2
Minimum Effective Dosage, Subject 2 [1, 3]: 0.047 mg/cm^2
Minimum Effective Dosage, Subject 3 [1, 3]: 0.023 mg/cm^2
